US8729081B2, “Compositions and methods for treating alcohol use disorders, pain and other diseases” (VM Discovery Inc., priority 2008, dated 2014)

Tests used:
Assay type in all cases: biochemical
[1] = molecular target: T1, MEK1 (Homo sapiens, UniProt Q02750); assay: Kinase profiling
T1 construct: purchased Reaction Biology Corp
Procedure: [The procedure below names another target; the source lists this target under the same test.] (§1) Kinase profiling was performed using HotSpot technology (Reaction Biology Corp. 11 Malvern, Pa., USA). This technology is a radioisotope-based P81 filter-binding assay. Compound of the present invention were dissolved in pure DMSO to make a 10 mM stock, then diluted in pure DMSO to make a serial dilution based on the IC50 ranges. PKCε (h) (0.4 nM, human recombinant protein expressed in insect cells. Mw=83.7 kDa) and substrate (20 μM peptide substrate, [RFARKGSLRQKNV]) were diluted in the reaction buffer (20 mM HEPES-HCl, pH 7.5, 10 mM MgCl2, 1 mM EGTA, 0.02% Brij35, 0.1 mM Na3VO4, 0.02 mg/ml BSA, 2 mM DTT, and 1% DMSO), and then 5 nL of compound was delivered into PKCε (h) and substrate mixture by acoustic technology using Echo 550 (LabCyte Inc., Sunnyvale, Calif.). The reaction was initiated by the addition of [γ-33P-ATP] into the reaction mixture (final concentration was 10 μM) and stopped after at least 40 min incubation at room temperature. The unreacted free 33P-ATP was washed away before detection.

[2] = molecular target: T2, Akt1 (Homo sapiens, UniProt P31749); assay: Kinase profiling
T2 construct: purchased Reaction Biology Corp
T2 sequence (P31749 whole entry): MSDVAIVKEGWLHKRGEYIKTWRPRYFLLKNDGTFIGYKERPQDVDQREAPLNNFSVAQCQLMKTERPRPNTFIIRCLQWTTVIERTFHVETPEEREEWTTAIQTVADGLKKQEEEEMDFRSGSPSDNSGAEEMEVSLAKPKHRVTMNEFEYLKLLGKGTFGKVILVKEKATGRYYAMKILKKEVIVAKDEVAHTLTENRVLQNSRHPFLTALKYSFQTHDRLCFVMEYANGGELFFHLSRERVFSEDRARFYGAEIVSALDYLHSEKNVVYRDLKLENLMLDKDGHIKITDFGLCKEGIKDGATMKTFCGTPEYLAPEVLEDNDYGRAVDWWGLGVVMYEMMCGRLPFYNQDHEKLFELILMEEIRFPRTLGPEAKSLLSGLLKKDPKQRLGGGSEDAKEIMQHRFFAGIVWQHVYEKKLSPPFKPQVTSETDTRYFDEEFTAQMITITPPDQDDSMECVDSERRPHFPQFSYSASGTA
Procedure: [The procedure below names another target; the source lists this target under the same test.] as §1

[3] = molecular target: T3, PKCzeta (Homo sapiens, UniProt Q05513); assay: Kinase profiling
T3 construct: purchased Reaction Biology Corp
Procedure: [The procedure below names another target; the source lists this target under the same test.] as §1

[4] = molecular target: T4, TrkA (Homo sapiens, UniProt P04629); assay: Kinase profiling
T4 construct: purchased Reaction Biology Corp
Procedure: [The procedure below names another target; the source lists this target under the same test.] as §1

[5] = molecular target: T5, PKCtheta (Homo sapiens, UniProt Q04759); assay: Kinase profiling
T5 construct: purchased Reaction Biology Corp
T5 sequence (Q04759 whole entry): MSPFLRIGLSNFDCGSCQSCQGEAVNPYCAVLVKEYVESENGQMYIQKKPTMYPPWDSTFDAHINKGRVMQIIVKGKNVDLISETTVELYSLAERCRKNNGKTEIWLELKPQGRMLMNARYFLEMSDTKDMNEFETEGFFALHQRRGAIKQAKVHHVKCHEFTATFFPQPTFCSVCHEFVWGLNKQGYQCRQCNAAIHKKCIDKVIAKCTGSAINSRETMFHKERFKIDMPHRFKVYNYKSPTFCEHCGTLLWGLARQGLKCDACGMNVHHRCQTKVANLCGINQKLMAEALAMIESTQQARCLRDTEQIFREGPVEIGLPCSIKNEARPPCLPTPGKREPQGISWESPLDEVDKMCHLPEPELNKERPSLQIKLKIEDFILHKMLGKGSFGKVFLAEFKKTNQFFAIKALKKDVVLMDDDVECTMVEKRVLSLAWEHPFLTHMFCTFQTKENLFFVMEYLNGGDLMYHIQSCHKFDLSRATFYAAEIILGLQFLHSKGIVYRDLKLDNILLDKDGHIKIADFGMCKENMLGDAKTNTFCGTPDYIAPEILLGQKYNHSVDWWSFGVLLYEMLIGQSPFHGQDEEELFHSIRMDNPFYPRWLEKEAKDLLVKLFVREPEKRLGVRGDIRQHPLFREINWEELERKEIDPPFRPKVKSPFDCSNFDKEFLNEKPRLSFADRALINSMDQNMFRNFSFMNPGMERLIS
Procedure: [The procedure below names another target; the source lists this target under the same test.] as §1

[6] = molecular target: T6, cMET (Homo sapiens, UniProt P08581); assay: Kinase profiling
T6 construct: purchased Reaction Biology Corp
T6 sequence (P08581 25-1390): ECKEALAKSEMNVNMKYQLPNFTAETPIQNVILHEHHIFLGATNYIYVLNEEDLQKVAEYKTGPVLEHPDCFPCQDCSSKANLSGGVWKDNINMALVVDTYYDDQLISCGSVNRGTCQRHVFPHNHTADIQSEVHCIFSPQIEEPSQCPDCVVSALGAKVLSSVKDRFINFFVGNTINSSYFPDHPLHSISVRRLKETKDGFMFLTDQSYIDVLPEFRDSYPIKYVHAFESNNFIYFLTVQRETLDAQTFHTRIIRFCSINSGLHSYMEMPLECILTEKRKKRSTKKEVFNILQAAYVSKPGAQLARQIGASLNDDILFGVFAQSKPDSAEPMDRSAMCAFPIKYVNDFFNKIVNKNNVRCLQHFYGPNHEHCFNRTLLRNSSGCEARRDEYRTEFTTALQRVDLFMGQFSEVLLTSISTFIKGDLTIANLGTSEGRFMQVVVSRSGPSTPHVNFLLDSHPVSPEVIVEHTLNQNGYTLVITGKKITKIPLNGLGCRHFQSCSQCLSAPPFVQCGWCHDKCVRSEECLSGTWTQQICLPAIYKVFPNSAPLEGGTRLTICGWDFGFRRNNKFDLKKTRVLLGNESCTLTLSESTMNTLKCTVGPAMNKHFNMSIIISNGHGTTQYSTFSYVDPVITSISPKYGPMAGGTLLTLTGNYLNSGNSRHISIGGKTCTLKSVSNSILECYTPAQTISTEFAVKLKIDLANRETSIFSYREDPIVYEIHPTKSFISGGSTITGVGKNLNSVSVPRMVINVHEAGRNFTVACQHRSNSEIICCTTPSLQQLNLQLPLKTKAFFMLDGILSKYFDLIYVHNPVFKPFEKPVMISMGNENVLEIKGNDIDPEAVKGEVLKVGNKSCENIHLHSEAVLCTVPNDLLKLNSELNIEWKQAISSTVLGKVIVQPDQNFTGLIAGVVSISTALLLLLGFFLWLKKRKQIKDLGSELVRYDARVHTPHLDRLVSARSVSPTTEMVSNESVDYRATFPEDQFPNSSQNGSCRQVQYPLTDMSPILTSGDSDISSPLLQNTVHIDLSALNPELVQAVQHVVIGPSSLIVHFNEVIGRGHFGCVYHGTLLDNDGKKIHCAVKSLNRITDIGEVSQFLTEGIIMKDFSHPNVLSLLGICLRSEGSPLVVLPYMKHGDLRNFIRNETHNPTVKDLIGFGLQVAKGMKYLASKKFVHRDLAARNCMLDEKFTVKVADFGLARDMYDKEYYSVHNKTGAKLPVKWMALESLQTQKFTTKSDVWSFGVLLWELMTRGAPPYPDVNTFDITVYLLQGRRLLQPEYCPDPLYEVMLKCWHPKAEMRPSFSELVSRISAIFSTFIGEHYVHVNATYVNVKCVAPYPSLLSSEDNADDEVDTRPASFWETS
Procedure: [The procedure below names another target; the source lists this target under the same test.] as §1

[7] = molecular target: T7, PKCalpha (Homo sapiens, UniProt P17252); assay: Kinase profiling
T7 construct: purchased Reaction Biology Corp
Procedure: [The procedure below names another target; the source lists this target under the same test.] as §1

[8] = molecular target: T8, PKCiota (Homo sapiens, UniProt P41743); assay: Kinase profiling
T8 construct: purchased Reaction Biology Corp
Procedure: [The procedure below names another target; the source lists this target under the same test.] as §1

[9] = molecular target: T9, CDK1/cyclinB (Homo sapiens, UniProt P06493); assay: Kinase profiling
T9 construct: purchased Reaction Biology Corp
T9 sequence (P06493 whole entry): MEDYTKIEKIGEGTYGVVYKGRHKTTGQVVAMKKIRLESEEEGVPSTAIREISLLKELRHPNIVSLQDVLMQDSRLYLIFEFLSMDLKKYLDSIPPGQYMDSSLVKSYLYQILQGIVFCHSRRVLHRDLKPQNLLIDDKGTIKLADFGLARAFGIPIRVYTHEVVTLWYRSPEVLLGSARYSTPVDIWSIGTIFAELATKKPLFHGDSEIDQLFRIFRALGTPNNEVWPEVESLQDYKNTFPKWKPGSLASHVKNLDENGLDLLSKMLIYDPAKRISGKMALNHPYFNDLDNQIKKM
T9 sequence (P14635 whole entry partner): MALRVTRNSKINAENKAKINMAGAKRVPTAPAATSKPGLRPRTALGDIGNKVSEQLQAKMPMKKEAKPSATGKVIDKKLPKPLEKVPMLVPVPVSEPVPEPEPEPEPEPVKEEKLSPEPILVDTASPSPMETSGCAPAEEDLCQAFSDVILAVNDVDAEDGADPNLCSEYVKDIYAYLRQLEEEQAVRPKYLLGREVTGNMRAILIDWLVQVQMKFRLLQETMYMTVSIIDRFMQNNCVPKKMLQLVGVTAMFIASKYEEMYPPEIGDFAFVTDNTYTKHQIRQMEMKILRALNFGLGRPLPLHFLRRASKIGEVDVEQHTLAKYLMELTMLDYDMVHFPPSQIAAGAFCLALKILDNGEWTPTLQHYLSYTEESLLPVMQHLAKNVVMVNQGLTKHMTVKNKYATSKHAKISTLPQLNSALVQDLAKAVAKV
Procedure: [The procedure below names another target; the source lists this target under the same test.] as §1

[10] = molecular target: T10, PKCε (Homo sapiens, UniProt Q02156); assay: Kinetic analysis of PKCε inhibition (initial velocity vs ATP, Lineweaver-Burk)
T10 construct: host or cells: insect cells
T10 sequence (Q02156 whole entry): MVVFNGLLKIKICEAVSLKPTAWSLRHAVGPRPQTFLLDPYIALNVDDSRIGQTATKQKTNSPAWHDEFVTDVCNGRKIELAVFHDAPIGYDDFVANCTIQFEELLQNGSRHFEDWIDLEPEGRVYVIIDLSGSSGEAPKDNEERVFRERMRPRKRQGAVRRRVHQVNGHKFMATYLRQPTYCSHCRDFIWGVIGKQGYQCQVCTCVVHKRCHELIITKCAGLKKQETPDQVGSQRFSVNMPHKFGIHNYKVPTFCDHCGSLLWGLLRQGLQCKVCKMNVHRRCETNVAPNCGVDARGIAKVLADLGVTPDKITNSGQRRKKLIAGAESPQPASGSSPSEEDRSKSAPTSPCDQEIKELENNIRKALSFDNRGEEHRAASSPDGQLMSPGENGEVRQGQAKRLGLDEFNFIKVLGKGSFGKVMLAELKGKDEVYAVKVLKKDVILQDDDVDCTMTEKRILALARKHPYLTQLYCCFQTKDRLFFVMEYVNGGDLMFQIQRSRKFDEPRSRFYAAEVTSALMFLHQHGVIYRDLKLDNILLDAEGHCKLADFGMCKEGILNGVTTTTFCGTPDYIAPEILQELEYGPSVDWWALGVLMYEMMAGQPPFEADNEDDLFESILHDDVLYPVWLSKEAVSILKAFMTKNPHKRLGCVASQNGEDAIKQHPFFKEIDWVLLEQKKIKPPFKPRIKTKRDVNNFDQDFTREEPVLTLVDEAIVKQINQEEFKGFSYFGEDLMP
Procedure: FIG. 1. […] (A) Initial velocity (Vi) plotted against ATP concentration at various concentrations of the compound plus vehicle control.
The above in vitro assay can also be used to measure the initial velocity of the kinase reaction, varying the concentrations of ATP (1-60 μM) or S25 peptide substrate (1-500 nM). Values for km and Vmax are calculated for drug- and vehicle-treated samples by linear regression analysis of double reciprocal Lineweaver Burke plots (see Examples).

IC50 [1]: > 20 µM
IC50 [2]: > 20 µM
IC50 [3]: > 20 µM
IC50 [4]: > 20 µM
IC50 [5]: > 20 µM
IC50 [6]: > 20 µM
IC50 [7]: > 20 µM
IC50 [8]: > 20 µM
IC50 [9]: > 20 µM
mode of PKCε inhibition with respect to ATP ([10]; FIG. 1, kinetic analysis): non-competitively with ATP
Vmax and km in Lineweaver-Burk double reciprocal plot ([10]; FIG. 1B, various compound concentrations plus vehicle control (4 conditions)): differences in Vmax but not in km
Structure (SMILES): O=C(NCCCN1CCCC1)c1ccc(/C=C2\Sc3ccccc3N(Cc3ccccc3F)C2=O)cc1 [Compound 481, 4-{(Z/E)-[4-(2-fluorobenzyl)-3-oxo-3,4-dihydro-2H-1,4-benzothiazin-2-ylidene]methyl}-N-[3-(pyrrolidin-1-yl)propyl]benzamide]
